Data reported in patent US5714479A, “Endothelin antagonistic heteroaromatic ring-fused cyclopentene derivatives” (Banyu Pharmaceutical Co., Ltd., priority 1993, dated 1998).

Experiments:
[1] = tested on: isolated porcine coronary arteries; experiment: Activities against endothelin-induced contraction of isolated porcine coronary arteries; design: species or system pig
Experimental: Activities against endothelin-induced contraction of isolated porcine coronary arteries
(§1) The coronary artery of pig was extracted, and a spiral preparation having a width of 1 mm and a length of 10 mm was prepared therefrom. The preparation having the endothelial cells denuded, was hanged in a 5 ml organ bath filled with a Krebs.Heneseleit solution saturated with a gas mixture of 95% O2 and 5% CO2, and a change in the tension was isometrically measured and recorded.
(§2) Endothelin-1 was added into the organ bath in a cumulatively increasing manner, whereby the influence of a compound of the present invention to the concentration-response curve for endothelin-1 was examined. The compound was added into the organ bath 20 minutes prior to the addition of endothelin-1.

[2] = tested on: isolated rabbit iliac arteries; experiment: Activities against endothelin-induced contraction of isolated rabbit iliac arteries
Experimental: Activities against endothelin-induced contraction of isolated rabbit iliac arteries
as §1, with “iliac” for “coronary”, “rabbit” for “pig”, “isolated,” for “extracted,”, “placed” for “hanged”, “Krebs.Henseleit” for “Krebs.Heneseleit”
as §2

ETA receptor = experiment: Endothelin binding inhibition test to ETA receptor (porcine aorta smooth muscle membranes, 125I-endothelin-1); conditions: at 1.1 μM
Experimental: Endothelin binding inhibition test to ETA receptor
(§3) The smooth muscle tissue of porcine aorta was homogenized in a buffer solution of 10 mM MOPS, pH 7.4, at 4° C. by a polytron. To the homogenate, sucrose was added to a concentration of 20%, and the mixture was centrifuged at 1,000×g for 15 minutes, and the supernatant was further centrifuged at 10,000×g for 15 minutes. The supernatant thereof was further centrifuged at 90,000×g for 40 minutes. The membrane precipitate thereby obtained was suspended in a buffer solution of 5 mM HEPES/Tris, pH 7.4, at a concentration of 25 mg/ml.
(§4) Then, 16 μl of this membrane suspension was added to 340 μl of 50 mM tris/HCl buffer, pH 7.4, containing […] calcium chloride, 10 μM magnesium chloride, 0.1 mM PMSF, 1 μM pepstatin A, 2 μM leupeptin, 1 mM 1,10-phenanthroline and 0.1% bovine serum albumin. To this suspension, 4 μl of (A) endothelin-1 (for nonspecific binding; 0.2 μM as the final concentration), (B) buffer solution A (for total control binding), or (C) a test compound (1.1 μM as the final concentration), was added. Further, to each suspension, 40 μl of ^125 I-endothelin-1 (12000-18000 cpm) was added. […] Then, the radioactivity trapped by the glass filter was measured, and the ^125 I-endothelin-1 binding inhibition D (%) at 1.1 μM of the test compound was determined by the following equation. […]

ETB receptor = experiment: Endothelin binding inhibition test to ETB receptor (porcine cerebellum membranes, 125I-endothelin-1); conditions: at 1.1 μM
Experimental: Endothelin binding inhibition test to ETB receptor
as §3, with “cerebellum” for “smooth muscle tissue”, “porcine” for “porcine aorta”, “3.3” for “25”
as §4

human ETA receptor = experiment: Endothelin binding inhibition test to human ET receptor (ETA); conditions: 1.1 μM; human cell membranes (SK-N-MC or Girardi heart cells)
Experimental: (§5) Endothelin binding inhibition test to human ET receptor
(§6) The human neuroblastoma SK-N-MC cells or the human Girardi heart cells purchased from Dainippon Seiyaku (Japan) were cultured in minimal essential medium supplemented with fetal calf serum. The cells were collected and homogenized in 10 mM MOPS buffer (pH 7.4) containing 154 mM NaCl, 10 mM KCl, 0.8 mM CaCl2 and 20% sucrose at 4° C. using a polytron homogenizer. The homogenate was then centrifuged at 1,000×gfor 15 minutes. The supernatant was centrifuged at 100,000×g for 1 hour at 4° C. Then the pellet was washed with 5 mM Hepes/Tris buffer (pH 7.4). The resulting membranes were incubated with [^125 I]endothelin-1 in the presence of each test compound or vehicle (1% dimethyl sulfoxide) in 50 mM Tris/HCl buffer (pH 7.4) containing 0.1 mM phenylmethanesulfonyl fluoride, 1 μM pepstatin, 2 μM leupeptin, 1 mM 1,10-phenanthroline, 1 mM EDTA, 10 μM CaCl2, 10 μM MgCl2 and 0.1% BSA in a total volume of 0.4 ml. After 4 hours incubation, cold 5 mM Hepes/Tris buffer (pH 7.4) containing 0.3% BSA (Buffer A) was added to the mixture. Free and bound [^125 I]endothelin-1 were separated by filtration using Whatman GF/C glass fiber filters. After the filtration, the filters were washed with buffer A, and the radioactivity on the filters was measured in a γ counter. Nonspecific binding was determined in the presence of 200 nM endothelin-1. […]

human ETB receptor = experiment: Endothelin binding inhibition test to human ET receptor (ETB); conditions: 1.1 μM; human cell membranes (SK-N-MC or Girardi heart cells)
Experimental: as §5, §6

[3] = 0.1 to 10 μM, rabbit iliac artery

| 125I-endothelin-1 binding inhibition D (%) to ETB (ETB receptor) [%] | Percent (%) inhibition of [125I]ET-1 specific binding to ETA (human ETA receptor) [%] | Percent (%) inhibition of [125I]ET-1 specific binding to ETB (human ETB receptor) [%] | Structure (SMILES) | effect on the isolated artery when applied alone [1] | influence on the concentration-response curve for endothelin-1 ([1]; 10 μM, added 20 minutes prior to endothelin-1, porcine coronary artery) | effect on maximum response to endothelin-1 ([1]; 10 μM, porcine coronary artery) | effect on the isolated artery when applied alone [2] | effect on maximum response to endothelin-1 [2, 3] | influence on the concentration-response curve for endothelin-1 [2, 3] | 125I-endothelin-1 binding inhibition D (%) to ETA (ETA receptor) [%] |
| --- | --- | --- | --- | --- | --- | --- | --- | --- | --- | --- |
| – | – | – | COc1ccc([C@H]2c3ncccc3[C@@H](c3ccc4c(c3)OCO4)[C@@H]2C(=O)O)cc1 (relative stereo) [Compound 2, (5RS,6SR,7SR)-6-Carboxy-5-(3,4-methylenedioxyphenyl)-7-(4-methoxyphenyl)cyclopenteno[1,2-b]pyridine] | showed no effects to the isolated coronary artery when applied alone | remarkably shifted the concentration-response curves of endothelin-1 to the right | did not affect the maximum response | showed no effects to the isolated iliac artery when applied alone | did not affect the maximum response | remarkably shifted the concentration-response curves of endothelin-1 to the right | – |
| 80 | 99 | 80 | COc1ccc([C@H]2c3ncccc3[C@@H](c3ccc4c(c3)OCO4)[C@@H]2C(=O)O)cc1 (relative stereo) [Compound 2-enantiomer A] | – | – | – | – | – | – | 99 |
